Data on seven compounds can be found in patent publication US12459951B2, “Compounds that interact with RAS superfamily proteins for treatment of cancers, inflammatory diseases, rasopathies, and fibrotic disease” (SHY Therapeutics, LLC, priority 2022, dated 2025).

One assay concerns Akt phosphorylation. Description: Akt Phosphorylation Assay (western blot), Panc-1. To be noted: at 10 μM, * = activation. The assay is classed as cell-based, human. In a few lines: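 Panc-1 (KRas G12D) cells were treated with compound at 10 μM final (0.3% DMSO) for 6 h at 37 °C, or with serial dilutions for IC50. Cells were either serum-starved overnight in 0.5% FBS and then stimulated with 1.5 ng/ml EGF for 15 min, or kept in 10% FBS without stimulation. Akt Ser473 phosphorylation in lysates was read by western blot.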
A general note: Immunoblotting shows a protein as a band on a membrane.

The test system of the next assay is KRas G12D mutant. The experiment in a line: Ras GTP Binding Domain Inhibition Assay (Ras Superfamily Assay). To be noted: 20 μM compound; for KRas G12D mutant + SOS: % inh.: with SOS; for KRas G12D mutant: % inh.: without SOS. Summed up: (§1)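 Ni-plate capture of His-tagged protein (10-30 μg/mL, o/n 4° C); cpd 20 μM or dilution series, 1% DMSO, 3 h RT ± Sos 556-1049 last h; 100 nM Cy-labelled GTP 45 min RT; 3× wash; fluorescence read.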

The next assay deals with KRas wild type. Described as above. The following applies: 20 μM compound; for KRas wild type + SOS: % inh.: with SOS; for KRas wild type: % inh.: without SOS. In a few lines:
as §1

The next assay has as its target T1, Rac-1 (Homo sapiens, UniProt P63000).
T1 construct: made in house
The description is as above. The following applies: read-out: Rac-1: % inh. In a few lines: as §1

In the next assay the test system is KRas G12C mutant. The description is as above. The following applies: 20 μM compound; for KRas G12C mutant + SOS: % inh.: with SOS; for KRas G12C mutant: % inh.: without SOS. Summed up:
as §1

The subject of a further assay is KRas Q61H mutant. The description is as above. To be noted: 20 μM compound; for KRas Q61H mutant + SOS: % inh.: with SOS; for KRas Q61H mutant: % inh.: without SOS. Summed up: as §1
A further assay has as its target T2, Rho-A (Homo sapiens, UniProt P61586).
T2 construct: made in house
The assay is described as above. To be noted: read-out: Rho-A: % inh.. In a few lines: as §1

T2 sequence (P61586 whole entry): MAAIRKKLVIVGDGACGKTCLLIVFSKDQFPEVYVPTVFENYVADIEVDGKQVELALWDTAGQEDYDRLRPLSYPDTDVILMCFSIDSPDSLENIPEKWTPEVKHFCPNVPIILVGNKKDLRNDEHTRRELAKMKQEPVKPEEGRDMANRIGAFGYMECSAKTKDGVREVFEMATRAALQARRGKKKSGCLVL

On to `COc1cc(Nc2nc(-c3nccn3C)nn3cc(-c4ccn(C)n4)c(C)c23)ncn1` [Compound 63, N-(6-Methoxypyrimidin-4-yl)-5-methyl-2-(1-methyl-1H-imidazol-2-yl)-6-(1-methyl-1H-pyrazol-3-yl)pyrrolo[2,1-f][1,2,4]triazin-4-amine], for which the “% inh of Akt phosphorylation in Panc-1” value in the assay on Akt phosphorylation is on record as “D* (85-100% activation)”. Besides, in the assay on KRas G12D mutant, the “KRas G12D mutant + SOS: % inh.” value was “D (D = 76-100% inhibition)” and the “KRas G12D mutant: % inh.” value is “D (D = 76-100% inhibition)”. In the assay with KRas wild type, the “KRas wild type + SOS: % inh.” value is “D (D = 76-100% inhibition)” and the “KRas wild type: % inh.” value is “D (D = 76-100% inhibition)”. The inhibition at 20 µM on Rac-1 was in the range of 76 to 100%. In the assay on KRas G12C mutant, the “KRas G12C mutant + SOS: % inh.” value is “C (C = 50-75% inhibition)” and the “KRas G12C mutant: % inh.” value was “D (D = 76-100% inhibition)”. In the assay on KRas Q61H mutant, the “KRas Q61H mutant + SOS: % inh.” value was “D (D = 76-100% inhibition)” and the “KRas Q61H mutant: % inh.” value is on record as “D (D = 76-100% inhibition)”. For the same compound, at Rho-A, the inhibition at 20 µM lay within 76 to 100%.

Turning to `CO[C@H]1CC[C@@H](Nc2nc(-c3nccn3C)nn3cc(-c4ccn(C(C)C)n4)c(C(C)C)c23)C1` (racemic) [Compound 36, rac 5-Isopropyl-6-(1-isopropyl-1H-pyrazol-3-yl)-N-((1R,3S)-3-methoxycyclopentyl)-2-(1-methyl-1H-imidazol-2-yl)pyrrolo[2,1-f][1,2,4]triazin-4-amine], the “% inh of Akt phosphorylation in Panc-1” value with Akt phosphorylation is 0 (0% inhibition). Besides, in the assay with KRas G12D mutant, the “KRas G12D mutant + SOS: % inh.” value is on record as “A (A = 1-25% inhibition)” and the “KRas G12D mutant: % inh.” value was “A (A = 1-25% inhibition)”. Moreover, in the assay on KRas wild type, the “KRas wild type + SOS: % inh.” value is “A (A = 1-25% inhibition)” and the “KRas wild type: % inh.” value is listed as 0 (0 = 0% inhibition). Further, on Rac-1, the inhibition at 20 µM came out at 0%. Besides, in the assay on KRas G12C mutant, the “KRas G12C mutant + SOS: % inh.” value is listed as 0 (0 = 0% inhibition) and the “KRas G12C mutant: % inh.” value was “A (A = 1-25% inhibition)”. For the same compound, in the assay on KRas Q61H mutant, the “KRas Q61H mutant + SOS: % inh.” value was “A (A = 1-25% inhibition)” and the “KRas Q61H mutant: % inh.” value is “A (A = 1-25% inhibition)”. The inhibition at 20 µM on Rho-A fell in the range of 1 to 25%.

As to `COc1cncnc1Nc1nc(-c2nccn2C)nn2cc(-c3ccn(C(C)C)n3)c(C)c12` [Compound 73, 6-(1-Isopropyl-1H-pyrazol-3-yl)-N-(5-methoxypyrimidin-4-yl)-5-methyl-2-(1-methyl-1H-imidazol-2-yl)pyrrolo[2,1-f][1,2,4]triazin-4-amine], the “% inh of Akt phosphorylation in Panc-1” value with Akt phosphorylation is “D* (85-100% activation)”. Also, in the assay with KRas G12D mutant, the “KRas G12D mutant + SOS: % inh.” value was “B (B = 26-49% inhibition)” and the “KRas G12D mutant: % inh.” value was “C (C = 50-75% inhibition)”. Besides, in the assay with KRas wild type, the “KRas wild type + SOS: % inh.” value is recorded as “B (B = 26-49% inhibition)” and the “KRas wild type: % inh.” value was “C (C = 50-75% inhibition)”. For the same compound, at Rac-1, the inhibition at 20 µM lay in the range of 50 to 75%. In addition, in the assay on KRas G12C mutant, the “KRas G12C mutant + SOS: % inh.” value is given as “B (B = 26-49% inhibition)” and the “KRas G12C mutant: % inh.” value was “B (B = 26-49% inhibition)”. In the assay on KRas Q61H mutant, the “KRas Q61H mutant + SOS: % inh.” value was “C (C = 50-75% inhibition)” and the “KRas Q61H mutant: % inh.” value is “C (C = 50-75% inhibition)”. In addition, the inhibition at 20 µM on Rho-A fell in the range of 76 to 100%.

For the compound `COc1cccc(Nc2nc(-c3nccn3C)nn3ccc(-c4ccccc4)c23)n1` [Compound 40, N-(6-Methoxypyridin-2-yl)-2-(1-methyl-1H-imidazol-2-yl)-5-phenylpyrrolo[2,1-f][1,2,4]triazin-4-amine], the “% inh of Akt phosphorylation in Panc-1” value in the assay on Akt phosphorylation is recorded as 0 (0% inhibition). In the assay on KRas G12D mutant, the “KRas G12D mutant + SOS: % inh.” value is recorded as 0 (0 = 0% inhibition) and the “KRas G12D mutant: % inh.” value was 0 (0 = 0% inhibition). Also, in the assay on KRas wild type, the “KRas wild type + SOS: % inh.” value is 0 (0 = 0% inhibition) and the “KRas wild type: % inh.” value was 0 (0 = 0% inhibition). For the same compound, at Rac-1, the inhibition at 20 µM was in the range of 1 to 25%. In the assay with KRas G12C mutant, the “KRas G12C mutant + SOS: % inh.” value is on record as 0 (0 = 0% inhibition) and the “KRas G12C mutant: % inh.” value is reported as 0 (0 = 0% inhibition). In the assay with KRas Q61H mutant, the “KRas Q61H mutant + SOS: % inh.” value was “A (A = 1-25% inhibition)” and the “KRas Q61H mutant: % inh.” value was 0 (0 = 0% inhibition). For the same compound, the inhibition at 20 µM on Rho-A is 1 to 25%.

In the case of `COCCO[C@H]1C[C@H](Nc2nc(-c3nccn3C)nn3cc(-c4cccc(OC)c4F)c(-c4ccccc4)c23)C1` [Compound 44, 6-(2-Fluoro-3-methoxyphenyl)-N-((1r,3r)-3-(2-methoxyethoxy)cyclobutyl)-2-(1-methyl-1H-imidazol-2-yl)-5-phenylpyrrolo[2,1-f][1,2,4]triazin-4-amine], the “% inh of Akt phosphorylation in Panc-1” value in the assay on Akt phosphorylation is “B (26-49% inhibition)”. In the assay with KRas G12D mutant, the “KRas G12D mutant + SOS: % inh.” value is “C (C = 50-75% inhibition)” and the “KRas G12D mutant: % inh.” value was “B (B = 26-49% inhibition)”. Moreover, in the assay with KRas wild type, the “KRas wild type + SOS: % inh.” value is “B (B = 26-49% inhibition)” and the “KRas wild type: % inh.” value is recorded as 0 (0 = 0% inhibition). Further, on Rac-1, the inhibition at 20 µM was in the range of 26 to 49%. Further, in the assay with KRas G12C mutant, the “KRas G12C mutant + SOS: % inh.” value was “B (B = 26-49% inhibition)” and the “KRas G12C mutant: % inh.” value is 0 (0 = 0% inhibition). In the assay on KRas Q61H mutant, the “KRas Q61H mutant + SOS: % inh.” value was “D (D = 76-100% inhibition)” and the “KRas Q61H mutant: % inh.” value is recorded as “D (D = 76-100% inhibition)”. In addition, at Rho-A, the inhibition at 20 µM lay within 1 to 25%.

Regarding `COc1cccc(-c2cn3nc(-c4nccn4C)nc(N[C@H]4C[C@H](OC)C4)c3c2-c2ccccn2)c1F` [Compound 45, 6-(2-Fluoro-3-methoxyphenyl)-N-((1r,3r)-3-methoxycyclobutyl)-2-(1-methyl-1H-imidazol-2-yl)-5-(pyridin-2-yl)pyrrolo[2,1-f][1,2,4]triazin-4-amine], in the assay with Akt phosphorylation, the “% inh of Akt phosphorylation in Panc-1” value is listed as 0 (0% inhibition). Further, in the assay with KRas G12D mutant, the “KRas G12D mutant + SOS: % inh.” value is reported as “A (A = 1-25% inhibition)” and the “KRas G12D mutant: % inh.” value is given as “B (B = 26-49% inhibition)”. Also, in the assay with KRas wild type, the “KRas wild type + SOS: % inh.” value is listed as “B (B = 26-49% inhibition)” and the “KRas wild type: % inh.” value is listed as “B (B = 26-49% inhibition)”. On Rac-1, the inhibition at 20 µM lay in the range of 50 to 75%. In the assay on KRas G12C mutant, the “KRas G12C mutant + SOS: % inh.” value was “A (A = 1-25% inhibition)” and the “KRas G12C mutant: % inh.” value is given as “B (B = 26-49% inhibition)”. Moreover, in the assay with KRas Q61H mutant, the “KRas Q61H mutant + SOS: % inh.” value is “D (D = 76-100% inhibition)” and the “KRas Q61H mutant: % inh.” value was “D (D = 76-100% inhibition)”. Moreover, at Rho-A, the inhibition at 20 µM lay in the range of 50 to 75%.

For `Cc1c(-c2ccn(C(C)C)n2)cn2nc(-c3nccn3C)nc(Nc3ccncc3)c12` [Compound 52, 6-(1-Isopropyl-1H-pyrazol-3-yl)-5-methyl-2-(1-methyl-1H-imidazol-2-yl)-N-(pyridin-4-yl)pyrrolo[2,1-f][1,2,4]triazin-4-amine], in the assay on Akt phosphorylation, the “% inh of Akt phosphorylation in Panc-1” value is “B (26-49% inhibition)”. In addition, in the assay on KRas G12D mutant, the “KRas G12D mutant + SOS: % inh.” value is given as “A (A = 1-25% inhibition)” and the “KRas G12D mutant: % inh.” value is recorded as “A (A = 1-25% inhibition)”. Moreover, in the assay on KRas wild type, the “KRas wild type + SOS: % inh.” value is “A (A = 1-25% inhibition)” and the “KRas wild type: % inh.” value is on record as 0 (0 = 0% inhibition). For the same compound, the inhibition at 20 µM on Rac-1 came out at 0%. Moreover, in the assay on KRas G12C mutant, the “KRas G12C mutant + SOS: % inh.” value is reported as “A (A = 1-25% inhibition)” and the “KRas G12C mutant: % inh.” value was 0 (0 = 0% inhibition). Also, at Rho-A, the inhibition at 20 µM amounted to 0%.
